Reference: PubChem BioAssay AID330 (DTP/NCI, 2004)
“And” between values parts separate entries of the source, which are not always exact repeats. Equal entries are not always repeated. Toxic doses and inconclusive results are not listed.

Test system: P388 leukemia ip, CD2F1 mice, survival T/C
Test: NCI In Vivo Anticancer Drug Screen. Data for tumor model P388 Leukemia (intraperitoneal) in CD2F1 (CDF1) mice
Settings: endpoint: median survival time, higher = longer survival
How it was run: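 Mice carrying the transplanted tumor received test compound or vehicle. Survival was recorded in each group, and the value is the treated-group measurement divided by that of the vehicle-treated control group.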

[1] = dose: 100.0 mg/kg/injection, schedule: Q04DX002 (ip), vehicle: Klucel (hydroxypropylcellulose) (HPC)
[2] = dose: 200.0 mg/kg/injection, schedule: Q04DX002 (ip), vehicle: Klucel (hydroxypropylcellulose) (HPC)
[3] = dose: 50.0 mg/kg/injection, schedule: Q01DX009 (ip), vehicle: saline with Tween-80
[4] = dose: 100.0 mg/kg/injection, schedule: Q01DX009 (ip), vehicle: saline with Tween-80
[5] = dose: 200.0 mg/kg/injection, schedule: Q01DX009 (ip), vehicle: saline with Tween-80
[6] = dose: 50.0 mg/kg/injection, schedule: Q01DX005 (ip), vehicle: Klucel (hydroxypropylcellulose) (HPC)
[7] = dose: 100.0 mg/kg/injection, schedule: Q01DX005 (ip), vehicle: Klucel (hydroxypropylcellulose) (HPC)
[8] = dose: 200.0 mg/kg/injection, schedule: Q01DX005 (ip), vehicle: Klucel (hydroxypropylcellulose) (HPC)
[9] = dose: 50.0 mg/kg/injection, schedule: Q01DX009 (ip), vehicle: water

COC1OC2COC(c3ccc(Cl)cc3)OC2C2OC12 (centres undefined)
T/C (dose: 7.5 mg/kg/injection, schedule: Q04DX002 (ip), vehicle: saline with Tween-80): 102 % of control | T/C (dose: 15.0 mg/kg/injection, schedule: Q04DX002 (ip), vehicle: saline with Tween-80): 101 % of control | T/C (dose: 30.0 mg/kg/injection, schedule: Q04DX002 (ip), vehicle: saline with Tween-80): 102 % of control

O=c1c2ccccc2sc2c(N(CCO)CCO)cc3c(c12)CCCC3
T/C (dose: 25.0 mg/kg/injection, schedule: Q01DX005 (ip), vehicle: distilled water + Tween-80): 103 % of control | T/C (dose: 50.0 mg/kg/injection, schedule: Q01DX005 (ip), vehicle: distilled water + Tween-80): 101 % of control | T/C (dose: 100.0 mg/kg/injection, schedule: Q01DX005 (ip), vehicle: distilled water + Tween-80): 100 % of control | T/C (dose: 200.0 mg/kg/injection, schedule: Q01DX005 (ip), vehicle: distilled water + Tween-80): 95 % of control

O=C(NC1CCCCC1(O)c1ccc([N+](=O)[O-])cc1)C(Cl)Cl (centres undefined)
T/C [1]: 100 % of control | T/C [2]: 100 % of control

CC(C)N(c1nccc(F)n1)C(C)C
T/C (dose: 25.0 mg/kg/injection, schedule: Q01DX005 (ip), vehicle: saline with Tween-80): 103 % of control | T/C (dose: 50.0 mg/kg/injection, schedule: Q01DX005 (ip), vehicle: saline with Tween-80): 101 % of control | T/C (dose: 100.0 mg/kg/injection, schedule: Q01DX005 (ip), vehicle: saline with Tween-80): 103 % of control | T/C (dose: 200.0 mg/kg/injection, schedule: Q01DX005 (ip), vehicle: saline with Tween-80): 104 % of control

CC(=O)Nc1ccc(S(=O)(=O)Nc2cccc3[nH]c(=O)oc23)cc1
T/C (dose: 50.0 mg/kg/injection, schedule: Q04DX002 (ip), vehicle: Klucel (hydroxypropylcellulose) (HPC)): 98 % of control | T/C [1]: 95 % of control | T/C [2]: 92 % of control

C=CCNC(=O)c1ccccc1SC(C)=O
T/C [3]: 117 % of control and 119 % of control | T/C [4]: 120 % of control | T/C [5]: 114 % of control

CCOC(=O)C(=O)Nc1c(C(=O)OC)cc(C)c(C)c1C#N
T/C (dose: 50.0 mg/kg/injection, schedule: Q01DX009 (ip), vehicle: Klucel (hydroxypropylcellulose) (HPC)): 93 % of control | T/C (dose: 100.0 mg/kg/injection, schedule: Q01DX009 (ip), vehicle: Klucel (hydroxypropylcellulose) (HPC)): 94 % of control | T/C (dose: 200.0 mg/kg/injection, schedule: Q01DX009 (ip), vehicle: Klucel (hydroxypropylcellulose) (HPC)): 93 % of control

Nc1nc(Cl)c2nnn(C3CC(O)C(CO)C3)c2n1 (centres undefined)
T/C (dose: 6.25 mg/kg/injection, schedule: Q01DX005 (ip), vehicle: Klucel (hydroxypropylcellulose) (HPC)): 116 % of control | T/C (dose: 12.5 mg/kg/injection, schedule: Q01DX005 (ip), vehicle: Klucel (hydroxypropylcellulose) (HPC)): 112 % of control | T/C (dose: 25.0 mg/kg/injection, schedule: Q01DX005 (ip), vehicle: Klucel (hydroxypropylcellulose) (HPC)): 119 % of control | T/C [6]: 110 % of control

CCOC(=O)Cc1oc2c(C(C)=O)c(O)c(C)c(O)c2c1C
T/C [6]: 88 % of control | T/C [7]: 89 % of control | T/C [8]: 87 % of control

O=C(c1ccccc1)N1C=CC(=Cc2ccccc2)C=C1
T/C (dose: 1.56 mg/kg/injection, schedule: Q01DX009 (ip), vehicle: Klucel (hydroxypropylcellulose) (HPC)): 102 % of control | T/C (dose: 3.12 mg/kg/injection, schedule: Q01DX009 (ip), vehicle: Klucel (hydroxypropylcellulose) (HPC)): 106 % of control | T/C (dose: 6.25 mg/kg/injection, schedule: Q01DX009 (ip), vehicle: Klucel (hydroxypropylcellulose) (HPC)): 101 % of control and 96 % of control

CC1OC(OCc2ccc3c(c2)C(=O)c2ccccc2C3=O)CC(N)C1O (centres undefined)
T/C (dose: 1.56 mg/kg/injection, schedule: Q01DX009 (ip), vehicle: water): 105 % of control | T/C (dose: 3.12 mg/kg/injection, schedule: Q01DX009 (ip), vehicle: water): 104 % of control | T/C (dose: 6.25 mg/kg/injection, schedule: Q01DX009 (ip), vehicle: water): 100 % of control | T/C (dose: 12.5 mg/kg/injection, schedule: Q01DX009 (ip), vehicle: water): 100 % of control | T/C (dose: 25.0 mg/kg/injection, schedule: Q01DX009 (ip), vehicle: water): 103 % of control | T/C [9]: 92 % of control

C[C@@H](N)C(=O)NC(CO)CC(N)C=O (some centres undefined)
T/C (dose: 50.0 mg/kg/injection, schedule: Q04DX002 (ip), vehicle: saline): 105 % of control and 115 % of control | T/C (dose: 100.0 mg/kg/injection, schedule: Q04DX002 (ip), vehicle: saline): 111 % of control and 120 % of control | T/C (dose: 200.0 mg/kg/injection, schedule: Q04DX002 (ip), vehicle: saline): 109 % of control and 121 % of control | T/C (dose: 400.0 mg/kg/injection, schedule: Q04DX002 (ip), vehicle: saline): 122 % of control

CN(C)[C@@H]1C(=O)C(C(N)=O)=C(O)[C@]2(O)C(=O)C3C(=O)c4c(O)ccc(Cl)c4[C@](C)(O)[C@H]3C[C@@H]12 (some centres undefined)
T/C (dose: 8.8 mg/kg/injection, schedule: Q01DX009 (ip), vehicle: saline with Tween-80): 109 % of control | T/C (dose: 13.3 mg/kg/injection, schedule: Q01DX009 (ip), vehicle: saline with Tween-80): 100 % of control | T/C (dose: 20.0 mg/kg/injection, schedule: Q01DX009 (ip), vehicle: saline with Tween-80): 109 % of control | T/C (dose: 30.0 mg/kg/injection, schedule: Q01DX009 (ip), vehicle: saline with Tween-80): 118 % of control

O=C(O)c1c2cc(Br)ccc2nc2[nH]c(=O)[nH]c(=O)c12
T/C (dose: 50.0 mg/kg/injection, schedule: Q01DX005 (ip), vehicle: Klucel + Tween-80): 104 % of control | T/C (dose: 100.0 mg/kg/injection, schedule: Q01DX005 (ip), vehicle: Klucel + Tween-80): 112 % of control | T/C (dose: 200.0 mg/kg/injection, schedule: Q01DX005 (ip), vehicle: Klucel + Tween-80): 111 % of control

CC1=NN(C(=O)c2ccncc2)C(=O)C1N=Nc1ccc(S(=O)(=O)Nc2nc(C)cc(C)n2)cc1 (centres undefined)
T/C [3]: 104 % of control | T/C [4]: 95 % of control | T/C [5]: 95 % of control

NCCCNCCCCNC(=O)C(O)NC(=O)CCCCCCN=C(N)N (centres undefined)
T/C (dose: 4.4 mg/kg/injection, schedule: Q01DX009 (ip), vehicle: other): 193 % of control and 195 % of control and 198 % of control | T/C (dose: 4.4 mg/kg/injection, schedule: Q01DX009 (ip), vehicle: saline): 193 % of control and 194 % of control and 200 % of control | T/C (dose: 4.5 mg/kg/injection, schedule: Q01DX009 (ip), vehicle: other): 193 % of control | T/C (dose: 4.5 mg/kg/injection, schedule: Q01DX009 (ip), vehicle: saline): 188 % of control and 196 % of control | T/C (dose: 6.25 mg/kg/injection, schedule: Q01DX005 (ip), vehicle: saline): 159 % of control | T/C (dose: 12.5 mg/kg/injection, schedule: Q01DX005 (ip), vehicle: saline): 165 % of control and 172 % of control | T/C (dose: 34.0 mg/kg/injection, schedule: Q01DX009 (ip), vehicle: saline): 205 % of control

CCOC(=O)/[C](=N\N=P(N(C)C)(N(C)C)N(C)C)[Sb]([CH3])[CH3]
T/C (dose: 12.5 mg/kg/injection, schedule: Q01DX001 (ip), vehicle: saline): 99 % of control | T/C (dose: 25.0 mg/kg/injection, schedule: Q01DX001 (ip), vehicle: saline): 102 % of control

COC(=O)C1=C(N)SS/C1=C/[N+](=O)[O-]
T/C [6]: 106 % of control | T/C [7]: 103 % of control | T/C [8]: 101 % of control

O=c1[nH]c(=O)c2n[nH]nc2[nH]1
T/C [4]: 86 % of control | T/C (dose: 100.0 mg/kg/injection, schedule: Q04DX003 (ip), vehicle: saline with Tween-80): 90 % of control | T/C [5]: 100 % of control | T/C (dose: 200.0 mg/kg/injection, schedule: Q04DX003 (ip), vehicle: saline with Tween-80): 90 % of control | T/C (dose: 400.0 mg/kg/injection, schedule: Q01DX009 (ip), vehicle: saline with Tween-80): 95 % of control | T/C (dose: 400.0 mg/kg/injection, schedule: Q04DX003 (ip), vehicle: saline with Tween-80): 100 % of control

COc1cc(O)c2c(O)c3c(=O)cc(C)oc3cc2c1
T/C (dose: 25.0 mg/kg/injection, schedule: Q01DX009 (ip), vehicle: saline with Tween-80): 102 % of control | T/C [3]: 109 % of control | T/C [4]: 112 % of control

Cc1cc2nnn(-c3ncccc3[N+](=O)[O-])c2cc1C
T/C (dose: 60.0 mg/kg/injection, schedule: Q01DX005 (ip), vehicle: saline with Tween-80): 104 % of control | T/C (dose: 120.0 mg/kg/injection, schedule: Q01DX005 (ip), vehicle: saline with Tween-80): 101 % of control | T/C (dose: 240.0 mg/kg/injection, schedule: Q01DX005 (ip), vehicle: saline with Tween-80): 101 % of control

CN(C)C(CC(=O)O)C(=O)O (centres undefined)
T/C [9]: 108 % of control | T/C (dose: 100.0 mg/kg/injection, schedule: Q01DX009 (ip), vehicle: water): 98 % of control | T/C (dose: 200.0 mg/kg/injection, schedule: Q01DX009 (ip), vehicle: water): 99 % of control
